# Assay results taken from ChEMBL document CHEMBL3774347, “Docking and Linking of Fragments To Discover Jumonji Histone Demethylase Inhibitors” (J Med Chem, 2016).
# Experiments:
# [1] = target: T1, Lysine-specific demethylase 4C (Homo sapiens, UniProt Q9H3R0); assay: Competitive inhibition of N-terminal His6-tagged KDM4C (1 to 352 residues) (unknown origin) expressed in Escherichia coli Rosetta 2(DE3)pLysS using 50 uM ARK(Me3)STGGK peptide/50 uM alpha-ketoglutarate as substrate/cofactor by FDH coupling-based Lineweaver-Burk plot analysis
# T1 sequence (Q9H3R0 whole entry): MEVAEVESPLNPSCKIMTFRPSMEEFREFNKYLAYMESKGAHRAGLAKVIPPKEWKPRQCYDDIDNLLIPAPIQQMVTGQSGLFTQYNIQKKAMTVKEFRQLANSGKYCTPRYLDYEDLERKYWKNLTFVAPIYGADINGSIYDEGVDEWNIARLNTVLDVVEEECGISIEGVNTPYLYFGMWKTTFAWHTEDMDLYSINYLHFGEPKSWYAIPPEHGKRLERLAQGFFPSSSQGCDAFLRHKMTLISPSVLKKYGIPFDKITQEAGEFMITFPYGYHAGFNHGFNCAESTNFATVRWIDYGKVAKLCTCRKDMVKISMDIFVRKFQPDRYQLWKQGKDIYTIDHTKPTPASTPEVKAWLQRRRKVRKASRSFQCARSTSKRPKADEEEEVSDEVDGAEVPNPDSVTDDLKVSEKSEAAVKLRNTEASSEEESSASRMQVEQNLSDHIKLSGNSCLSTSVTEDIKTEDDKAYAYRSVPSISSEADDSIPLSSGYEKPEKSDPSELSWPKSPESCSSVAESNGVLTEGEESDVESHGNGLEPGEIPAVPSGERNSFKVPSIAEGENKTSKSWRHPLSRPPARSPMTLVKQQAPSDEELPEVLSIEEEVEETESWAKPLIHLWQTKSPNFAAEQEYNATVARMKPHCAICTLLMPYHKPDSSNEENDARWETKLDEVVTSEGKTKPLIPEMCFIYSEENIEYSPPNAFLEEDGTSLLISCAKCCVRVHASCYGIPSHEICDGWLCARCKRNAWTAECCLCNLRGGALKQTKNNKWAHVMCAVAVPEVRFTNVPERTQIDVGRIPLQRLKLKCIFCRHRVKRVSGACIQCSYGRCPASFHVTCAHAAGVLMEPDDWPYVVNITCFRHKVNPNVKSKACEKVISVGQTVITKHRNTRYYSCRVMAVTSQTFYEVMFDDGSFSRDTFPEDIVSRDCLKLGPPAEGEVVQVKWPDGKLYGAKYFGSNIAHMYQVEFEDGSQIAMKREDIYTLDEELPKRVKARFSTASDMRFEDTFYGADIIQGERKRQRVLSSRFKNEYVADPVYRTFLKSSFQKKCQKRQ
# [2] = target: T1, Lysine-specific demethylase 4C; assay: Competitive inhibition of N-terminal His6-tagged KDM4C (1 to 352 residues) (unknown origin) expressed in Escherichia coli Rosetta 2(DE3)pLysS using 250 uM ARK(Me3)STGGK peptide/50 uM alpha-ketoglutarate as substrate/cofactor by FDH coupling-based Lineweaver-Burk plot analysis
# [3] = target: T1, Lysine-specific demethylase 4C
# [4] = target: T2, Lysine-specific demethylase 2A (Homo sapiens, UniProt Q9Y2K7); assay: Inhibition of KDM2A (unknown origin) expressed in Escherichia coli using Biotin H3 (28 to 48 residues) Me2 KDM2A Cognate Ligande/10 uM alpha-ketoglutarate as substrate/cofactor preincubated for 15 mins followed by substrate addition measured after 30 mins by alphascreen assay
# T2 sequence (Q9Y2K7 whole entry): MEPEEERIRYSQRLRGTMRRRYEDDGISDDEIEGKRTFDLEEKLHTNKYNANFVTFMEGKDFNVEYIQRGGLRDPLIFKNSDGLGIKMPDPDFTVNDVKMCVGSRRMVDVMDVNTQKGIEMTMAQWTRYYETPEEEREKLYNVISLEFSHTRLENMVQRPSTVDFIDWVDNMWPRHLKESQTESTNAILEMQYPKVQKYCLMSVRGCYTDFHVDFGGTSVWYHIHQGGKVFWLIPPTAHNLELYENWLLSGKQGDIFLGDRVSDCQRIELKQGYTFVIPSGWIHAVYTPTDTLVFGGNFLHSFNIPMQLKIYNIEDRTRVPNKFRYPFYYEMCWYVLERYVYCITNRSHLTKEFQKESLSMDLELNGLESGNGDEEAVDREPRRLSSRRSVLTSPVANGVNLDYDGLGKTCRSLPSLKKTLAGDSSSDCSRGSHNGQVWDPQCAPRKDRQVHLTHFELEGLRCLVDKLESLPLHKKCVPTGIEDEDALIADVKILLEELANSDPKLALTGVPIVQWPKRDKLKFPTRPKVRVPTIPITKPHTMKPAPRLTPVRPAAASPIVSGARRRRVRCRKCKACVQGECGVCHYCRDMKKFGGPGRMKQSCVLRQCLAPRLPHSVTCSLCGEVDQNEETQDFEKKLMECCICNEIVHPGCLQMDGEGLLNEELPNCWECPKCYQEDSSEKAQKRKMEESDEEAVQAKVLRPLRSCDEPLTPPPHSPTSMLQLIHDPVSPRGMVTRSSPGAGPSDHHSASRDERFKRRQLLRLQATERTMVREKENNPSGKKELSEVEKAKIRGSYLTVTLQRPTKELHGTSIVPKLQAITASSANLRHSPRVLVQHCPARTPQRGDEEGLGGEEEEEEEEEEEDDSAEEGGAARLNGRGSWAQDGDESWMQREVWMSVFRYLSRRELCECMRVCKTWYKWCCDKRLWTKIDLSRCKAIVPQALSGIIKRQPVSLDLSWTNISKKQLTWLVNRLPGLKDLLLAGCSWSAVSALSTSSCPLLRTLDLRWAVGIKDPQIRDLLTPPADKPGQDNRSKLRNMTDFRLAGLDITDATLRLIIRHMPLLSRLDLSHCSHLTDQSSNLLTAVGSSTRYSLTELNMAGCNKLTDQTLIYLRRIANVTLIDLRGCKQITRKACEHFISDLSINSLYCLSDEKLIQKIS
# [5] = target: T1, Lysine-specific demethylase 4C; assay: Competitive inhibition of N-terminal His6-tagged KDM4C (1 to 352 residues) (unknown origin) expressed in Escherichia coli Rosetta 2(DE3)pLysS using 50 uM ARK(Me3)STGGK peptide/5 uM alpha-ketoglutarate as substrate/cofactor by FDH coupling-based Lineweaver-Burk plot analysis
Compound,IC50 [1] [µM],IC50 [2] [µM],Ki [3] [µM],IC50 [4] [µM],IC50 [5] [µM]
COCC(=O)Nc1ccc(O)c(-c2cc(C(=O)O)ccn2)c1,14.2,14.9,0.683,91,3.3
CC(=O)Nc1ccc(O)c(-c2cc(C(=O)O)ccn2)c1,,,,> 100,
COc1cccc(CC(=O)Nc2ccc(O)c(-c3cc(C(=O)O)ccn3)c2)c1,,,,89,
O=C(O)c1ccnc(-c2cc(NC(=O)c3ccc(O)cc3)ccc2O)c1,4.8,5.5,0.0432,89,1.1
Cc1cc(C(=O)Nc2ccc(O)c(-c3cc(C(=O)O)ccn3)c2)no1,,,,76,
